From patent US10501461B2, “Tyrosine amide derivatives as Rho-kinase inhibitors” (CHIESI FARMACEUTICI S.P.A., priority 2017, dated 2019)

How the values were obtained:
[1] = biological target: Rho kinase 1 (ROCK-I) (Homo sapiens, UniProt Q13464); test: In vitro Rho kinase inhibitory activity assay (ADP-Glo), Rho kinase 1; type: biochemical; conditions: 10 μM ATP, 25° C., expressed as range of activity
Method: (§1) The effectiveness of compounds of the present invention to inhibit Rho kinase activity can be determined in a 10 μl assay containing 40 mM Tris pH7.5, 20 mM MgCl2 0.1 mg/ml BSA, 50 μM DTT and 2.5 μM peptide substrate (Myelin Basic Protein) using an ADP-Glo kit (Promega). Compounds were dissolved in DMSO such that the final concentration of DMSO was 1% in the assay. All reactions/incubations are performed at 25° C. Compound (2 ul) and either Rho kinase 1 or 2 (4 μl) were mixed and incubated for 30 mins. Reactions were initiated by addition of ATP (4 μl) such that the final concentration of ATP in the assay was 10 μM. After a 1 hour incubation 10 μl of ADP-Glo Reagent was added and after a further 45 minute incubation 20 ul of Kinase Detection Buffer was added and the mixture incubated for a further 30 minutes. The luminescent signal was measured on a luminometer. […] Compounds were tested in dose-response format and the inhibition of kinase activity was calculated at each concentration of compound. To determine the IC50 (concentration of compound required to inhibit 50% of the enzyme activity) data were fit to a plot of % inhibition vs Log10 compound concentration using a sigmoidal fit with a variable slope and fixing the maximum to 100% and the minimum to 0%. To determine the Ki values the Cheng-Prusoff equation was utilized (Ki=IC50/(1+[S]/Km).

[2] = biological target: Rho kinase 2 (ROCK-II) (Homo sapiens, UniProt O75116); test: In vitro Rho kinase inhibitory activity assay (ADP-Glo), Rho kinase 2; type: biochemical; conditions: 10 μM ATP, 25° C., expressed as range of activity
Method: as §1

Rho kinase 1 (ROCK-I), sequence (Q13464 whole entry): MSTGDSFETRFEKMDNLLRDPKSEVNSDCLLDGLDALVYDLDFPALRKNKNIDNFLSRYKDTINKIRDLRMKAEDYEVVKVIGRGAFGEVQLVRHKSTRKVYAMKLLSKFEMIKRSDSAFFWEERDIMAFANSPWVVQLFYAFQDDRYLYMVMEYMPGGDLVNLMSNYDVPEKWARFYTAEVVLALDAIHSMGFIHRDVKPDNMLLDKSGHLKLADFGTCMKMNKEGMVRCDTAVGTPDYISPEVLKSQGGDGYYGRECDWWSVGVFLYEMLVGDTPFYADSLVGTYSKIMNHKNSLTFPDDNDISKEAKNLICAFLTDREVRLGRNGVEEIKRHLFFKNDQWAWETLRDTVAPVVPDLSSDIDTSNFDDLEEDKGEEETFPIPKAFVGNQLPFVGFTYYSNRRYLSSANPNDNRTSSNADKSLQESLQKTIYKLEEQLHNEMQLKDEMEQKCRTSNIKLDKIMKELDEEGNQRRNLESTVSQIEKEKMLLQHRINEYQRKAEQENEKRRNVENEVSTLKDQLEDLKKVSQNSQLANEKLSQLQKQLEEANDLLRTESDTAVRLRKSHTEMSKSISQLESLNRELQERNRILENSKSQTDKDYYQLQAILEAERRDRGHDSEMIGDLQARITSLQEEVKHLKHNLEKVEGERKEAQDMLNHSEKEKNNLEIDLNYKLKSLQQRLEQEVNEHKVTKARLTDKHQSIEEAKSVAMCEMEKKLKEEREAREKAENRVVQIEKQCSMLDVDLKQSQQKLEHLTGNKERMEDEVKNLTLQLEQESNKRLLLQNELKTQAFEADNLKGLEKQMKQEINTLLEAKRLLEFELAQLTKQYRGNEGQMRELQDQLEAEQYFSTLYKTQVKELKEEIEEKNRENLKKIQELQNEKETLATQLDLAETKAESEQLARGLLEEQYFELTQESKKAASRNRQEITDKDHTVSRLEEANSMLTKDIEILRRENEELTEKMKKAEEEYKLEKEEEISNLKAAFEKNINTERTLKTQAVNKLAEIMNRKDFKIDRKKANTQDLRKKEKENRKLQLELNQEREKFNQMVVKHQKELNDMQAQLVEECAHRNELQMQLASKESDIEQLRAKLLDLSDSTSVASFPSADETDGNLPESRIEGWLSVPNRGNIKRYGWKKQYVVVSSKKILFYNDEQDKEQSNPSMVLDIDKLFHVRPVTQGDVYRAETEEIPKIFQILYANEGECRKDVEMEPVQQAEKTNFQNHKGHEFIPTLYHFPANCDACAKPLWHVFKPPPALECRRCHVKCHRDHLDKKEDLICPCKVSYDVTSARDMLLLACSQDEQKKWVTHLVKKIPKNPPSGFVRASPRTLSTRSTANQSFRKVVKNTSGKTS
Rho kinase 2 (ROCK-II), sequence (O75116 whole entry): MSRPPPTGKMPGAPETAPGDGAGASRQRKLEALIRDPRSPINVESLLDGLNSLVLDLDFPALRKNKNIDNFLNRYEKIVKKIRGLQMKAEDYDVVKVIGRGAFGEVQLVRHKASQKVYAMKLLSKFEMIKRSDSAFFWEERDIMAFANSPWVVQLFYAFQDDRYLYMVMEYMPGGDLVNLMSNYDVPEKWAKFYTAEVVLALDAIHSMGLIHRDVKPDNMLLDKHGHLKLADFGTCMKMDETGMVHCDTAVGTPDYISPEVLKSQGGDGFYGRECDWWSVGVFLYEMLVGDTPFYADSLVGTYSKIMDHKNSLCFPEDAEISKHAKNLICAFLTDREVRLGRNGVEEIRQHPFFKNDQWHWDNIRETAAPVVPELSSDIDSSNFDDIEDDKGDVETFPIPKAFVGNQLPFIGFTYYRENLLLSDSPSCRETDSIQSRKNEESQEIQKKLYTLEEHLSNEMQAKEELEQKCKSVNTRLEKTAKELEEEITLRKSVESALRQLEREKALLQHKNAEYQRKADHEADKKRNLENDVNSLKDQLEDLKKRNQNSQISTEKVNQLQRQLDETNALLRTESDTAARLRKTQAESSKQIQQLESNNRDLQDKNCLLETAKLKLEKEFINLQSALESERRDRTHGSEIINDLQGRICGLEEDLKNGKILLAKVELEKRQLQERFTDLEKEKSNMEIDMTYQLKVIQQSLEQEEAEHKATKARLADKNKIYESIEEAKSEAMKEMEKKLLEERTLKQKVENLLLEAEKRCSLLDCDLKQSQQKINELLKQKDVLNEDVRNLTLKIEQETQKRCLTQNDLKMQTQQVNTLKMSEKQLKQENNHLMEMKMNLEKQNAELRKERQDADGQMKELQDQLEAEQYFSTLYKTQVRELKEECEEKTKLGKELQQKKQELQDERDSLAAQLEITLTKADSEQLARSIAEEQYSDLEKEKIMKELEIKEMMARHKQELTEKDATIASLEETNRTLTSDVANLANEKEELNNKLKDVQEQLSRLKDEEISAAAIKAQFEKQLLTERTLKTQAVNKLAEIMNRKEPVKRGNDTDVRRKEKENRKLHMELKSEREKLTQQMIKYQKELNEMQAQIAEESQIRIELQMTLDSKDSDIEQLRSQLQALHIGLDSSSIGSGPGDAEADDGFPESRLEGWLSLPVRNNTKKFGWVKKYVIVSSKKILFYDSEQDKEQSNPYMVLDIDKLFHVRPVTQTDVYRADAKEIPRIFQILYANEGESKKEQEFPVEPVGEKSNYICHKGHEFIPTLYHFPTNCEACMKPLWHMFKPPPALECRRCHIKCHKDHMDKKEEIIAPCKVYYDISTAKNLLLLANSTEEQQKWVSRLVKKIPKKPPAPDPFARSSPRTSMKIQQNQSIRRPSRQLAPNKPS

Structure (SMILES)	Ki [1]	Ki [2]
Cc1c[nH]c2nccc(Oc3ccc(C[C@H](N)C(=O)N(C)CC4CCN(C)CC4)cc3F)c12 [Example 39, (S)-2-amino-3-(3-fluoro-4-((3-methyl-1H-pyrrolo[2,3-b]pyridin-4-yl)oxy)phenyl)-N-methyl-N-((1-methylpiperidin-4-yl)methyl)propanamide]	3 to 30 nM	3 to 30 nM
Cc1c[nH]c2nccc(Oc3ccc(C[C@H](N)C(=O)NCC4CCN(C)CC4)cc3F)c12 [Example 40, (S)-2-amino-3-(3-fluoro-4-((3-methyl-1H-pyrrolo[2,3-b]pyridin-4-yl)oxy)phenyl)-N-((1-methylpiperidin-4-yl)methyl)propanamide]	3 to 30 nM	< 3 nM
Cc1c[nH]c2nccc(Oc3ccc(C[C@H](N)C(=O)N(C)C4CCN(C)CC4)cc3F)c12 [Example 44, (S)-2-amino-3-(3-fluoro-4-((3-methyl-1H-pyrrolo[2,3-b]pyridin-4-yl)oxy)phenyl)-N-methyl-N-(1-methylpiperidin-4-yl)propanamide]	3 to 30 nM	< 3 nM
Cc1c[nH]c2nccc(Oc3ccc(C[C@H](N)C(=O)N[C@H]4CN5CCC4CC5)cc3F)c12 [Example 46, (S)-2-amino-3-(3-fluoro-4-((3-methyl-1H-pyrrolo[2,3-b]pyridin-4-yl)oxy)phenyl)-N-((R)-quinuclidin-3-yl)propanamide]	< 3 nM	< 3 nM
Cc1c[nH]c2nccc(Oc3ccc(C[C@@H](N)C(=O)NC4CCOCC4)cc3F)c12 [Example 55, (R)-2-amino-3-(3-fluoro-4-((3-methyl-1H-pyrrolo[2,3-b]pyridin-4-yl)oxy)phenyl)-N-(tetrahydro-2H-pyran-4-yl)propanamide]	3 to 30 nM	3 to 30 nM
Cc1c[nH]c2nccc(Oc3ccc(C[C@H](N)C(=O)NCCc4cnn(-c5ccccc5)c4)cc3F)c12 [Example 56, (S)-2-amino-3-(3-fluoro-4-((3-methyl-1H-pyrrolo[2,3-b]pyridin-4-yl)oxy)phenyl)-N-(2-(1-phenyl-1H-pyrazol-4-yl)ethyl)propanamide]	< 3 nM	< 3 nM
Cc1c[nH]c2nccc(Oc3ccc(CC(N)C(=O)NCCc4ccncc4)cc3F)c12 (stereo not shown) [Example 57, 2-amino-3-(3-fluoro-4-((3-methyl-1H-pyrrolo[2,3-b]pyridin-4-yl)oxy)phenyl)-N-(2-(pyridin-4-yl)ethyl)propanamide]	< 3 nM	< 3 nM
Cc1c[nH]c2nccc(Oc3ccc(CC(N)C(=O)N4CCN(CC5CC5)CC4)cc3F)c12 (stereo not shown) [Example 58, 2-amino-1-(4-(cyclopropylmethyl)piperazin-1-yl)-3-(3-fluoro-4-((3-methyl-1H-pyrrolo[2,3-b]pyridin-4-yl)oxy)phenyl)propan-1-one]	< 3 nM	< 3 nM
Cc1c[nH]c2nccc(Oc3ccc(CC(N)C(=O)N4CCN(C)CC4)cc3F)c12 (stereo not shown) [Example 59, 2-amino-3-(3-fluoro-4-((3-methyl-1H-pyrrolo[2,3-b]pyridin-4-yl)oxy)phenyl)-1-(4-methylpiperazin-1-yl)propan-1-one]	< 3 nM	< 3 nM
Cc1c[nH]c2nccc(Oc3ccc(CC(N)C(=O)N4CCN(C5CC5)CC4)cc3F)c12 (stereo not shown) [Example 60, 2-amino-1-(4-cyclopropylpiperazin-1-yl)-3-(3-fluoro-4-((3-methyl-1H-pyrrolo[2,3-b]pyridin-4-yl)oxy)phenyl)propan-1-one]	< 3 nM	< 3 nM
Cc1c[nH]c2nccc(Oc3ccc(CC(N)C(=O)NCc4cccs4)cc3F)c12 (stereo not shown) [Example 61, 2-amino-3-(3-fluoro-4-((3-methyl-1H-pyrrolo[2,3-b]pyridin-4-yl)oxy)phenyl)-N-(thiophen-2-ylmethyl)propanamide]	< 3 nM	< 3 nM

Next, values leading:

Ki [1]	Ki [2]	Structure (SMILES)
< 3 nM	< 3 nM	Cc1c[nH]c2nccc(Oc3ccc(C[C@H](N)C(=O)NC4(CCO)CCCCC4)cc3F)c12 [Example 36, (S)-2-amino-3-(3-fluoro-4-((3-methyl-1H-pyrrolo[2,3-b]pyridin-4-yl)oxy)phenyl)-N-(1-(2-hydroxyethyl)cyclohexyl)propanamide]
< 3 nM	< 3 nM	Cc1c[nH]c2nccc(Oc3ccc(C[C@H](N)C(=O)NC4(CO)CCN(C)CC4)cc3F)c12 [Example 37, (S)-2-amino-3-(3-fluoro-4-((3-methyl-1H-pyrrolo[2,3-b]pyridin-4-yl)oxy)phenyl)-N-(4-(hydroxymethyl)-1-methylpiperidin-4-yl)propanamide]
< 3 nM	< 3 nM	Cc1c[nH]c2nccc(Oc3ccc(C[C@H](N)C(=O)NC4(CN(C)C)CCCCC4)cc3F)c12 [Example 38, (S)-2-amino-N-(1-((dimethylamino)methyl)cyclohexyl)-3-(3-fluoro-4-((3-methyl-1H-pyrrolo[2,3-b]pyridin-4-yl)oxy)phenyl)propanamide]
< 3 nM	< 3 nM	Cc1c[nH]c2nccc(Oc3ccc(C[C@H](N)C(=O)N4CC(N(C)C)C4)cc3F)c12 [Example 41, (S)-2-amino-1-(3-(dimethylamino)azetidin-1-yl)-3-(3-fluoro-4-((3-methyl-1H-pyrrolo[2,3-b]pyridin-4-yl)oxy)phenyl)propan-1-one]
< 3 nM	< 3 nM	Cc1c[nH]c2nccc(Oc3ccc(C[C@H](N)C(=O)NC4CN(C)C4)cc3F)c12 [Example 42, (S)-2-amino-3-(3-fluoro-4-((3-methyl-1H-pyrrolo[2,3-b]pyridin-4-yl)oxy)phenyl)-N-(1-methylazetidin-3-yl)propanamide]
< 3 nM	< 3 nM	Cc1c[nH]c2nccc(Oc3ccc(C[C@H](N)C(=O)N4CC[C@@H](N(C)C)C4)cc3F)c12 [Example 43, (S)-2-amino-1-((R)-3-(dimethylamino)pyrrolidin-1-yl)-3-(3-fluoro-4-((3-methyl-1H-pyrrolo[2,3-b]pyridin-4-yl)oxy)phenyl)propan-1-one]
< 3 nM	< 3 nM	Cc1c[nH]c2nccc(Oc3ccc(C[C@H](N)C(=O)N4CCC(CN(C)C)CC4)cc3F)c12 [Example 45, (S)-2-amino-1-(4-((dimethylamino)methyl)piperidin-1-yl)-3-(3-fluoro-4-((3-methyl-1H-pyrrolo[2,3-b]pyridin-4-yl)oxy)phenyl)propan-1-one]
< 3 nM	< 3 nM	Cc1c[nH]c2nccc(Oc3ccc(C[C@H](N)C(=O)NCC4CN(C)C4)cc3F)c12 [Example 47, (S)-2-amino-3-(3-fluoro-4-((3-methyl-1H-pyrrolo[2,3-b]pyridin-4-yl)oxy)phenyl)-N-((1-methylazetidin-3-yl)methyl)propanamide]
< 3 nM	< 3 nM	Cc1c[nH]c2nccc(Oc3ccc(C[C@H](N)C(=O)N4CC(CN(C)C)C4)cc3F)c12 [Example 48, (S)-2-amino-1-(3-((dimethylamino)methyl)azetidin-1-yl)-3-(3-fluoro-4-((3-methyl-1H-pyrrolo[2,3-b]pyridin-4-yl)oxy)phenyl)propan-1-one]
< 3 nM	< 3 nM	Cc1c[nH]c2nccc(Oc3ccc(C[C@H](N)C(=O)N4CC[C@H](N(C)C)C4)cc3F)c12 [Example 49, (S)-2-amino-1-((S)-3-(dimethylamino)pyrrolidin-1-yl)-3-(3-fluoro-4-((3-methyl-1H-pyrrolo[2,3-b]pyridin-4-yl)oxy)phenyl)propan-1-one]
< 3 nM	< 3 nM	Cc1c[nH]c2nccc(Oc3ccc(C[C@H](N)C(=O)N4CCC[C@@H](N(C)C)C4)cc3F)c12 [Example 50, (S)-2-amino-1-((R)-3-(dimethylamino)piperidin-1-yl)-3-(3-fluoro-4-((3-methyl-1H-pyrrolo[2,3-b]pyridin-4-yl)oxy)phenyl)propan-1-one]
< 3 nM	< 3 nM	Cc1c[nH]c2nccc(Oc3ccc(CC(N)C(=O)N4CCN(Cc5ccncc5)CC4)cc3F)c12 (stereo not shown) [Example 51, 2-amino-3-(3-fluoro-4-((3-methyl-1H-pyrrolo[2,3-b]pyridin-4-yl)oxy)phenyl)-1-(4-(pyridin-4-ylmethyl)piperazin-1-yl)propan-1-one]
< 3 nM	< 3 nM	Cc1c[nH]c2nccc(Oc3ccc(CC(N)C(=O)N4CCN(Cc5ccc6c(c5)OCO6)CC4)cc3F)c12 (stereo not shown) [Example 52, 2-amino-1-(4-(benzo[d][1,3]dioxol-5-ylmethyl)piperazin-1-yl)-3-(3-fluoro-4-((3-methyl-1H-pyrrolo[2,3-b]pyridin-4-yl)oxy)phenyl)propan-1-one]
< 3 nM	< 3 nM	Cc1c[nH]c2nccc(Oc3ccc(CC(N)C(=O)N4CCN(CCc5ccccc5)CC4)cc3F)c12 (stereo not shown) [Example 53, 2-amino-3-(3-fluoro-4-((3-methyl-1H-pyrrolo[2,3-b]pyridin-4-yl)oxy)phenyl)-1-(4-phenethylpiperazin-1-yl)propan-1-one]
< 3 nM	< 3 nM	Cc1c[nH]c2nccc(Oc3ccc(C[C@H](N)C(=O)NC4CCOCC4)cc3F)c12 [Example 54, (S)-2-amino-3-(3-fluoro-4-((3-methyl-1H-pyrrolo[2,3-b]pyridin-4-yl)oxy)phenyl)-N-(tetrahydro-2H-pyran-4-yl)propanamide]
